US6989401B2, “Sulfonic acid derivatives of hydroxamic acids and their use as medicinal products” (Mitsubishi Pharma Corporation, priority 2000, dated 2006)
Like-named read-outs stand apart in the source and are kept apart here.

Legend:
[1] = tested on: LPS in E. coli culture supernatant (E. coli NIHJ JC-2 strain); assay: Inhibitory effect on LPS in E. coli culture supernatant; assay type: cell-based; settings: relative ratio to the inhibitory ratio of the compound of Example 1 as 1.0; compound 100 μM, 24 hr
Experimental: One platinum loop of E. coli NIHJ JC-2 strain was inoculated into a test tube containing heart infusion broth (HIB, 5 mL) and cultured for about 24 hr. The bacterial culture broth was washed three times by centrifugation (3000 rpm, 15 min, 20° C., TOMY Seiko, RL-131) using 10 mL of fresh HIB medium for one cycle of washing. The washed bacteria were prepared to an about 10^7 colony forming unit (CFU)/mL with a fresh HIB medium, and 0.2 mL of the prepared bacterial suspension was inoculated into an Erlenmeyer flask containing a fresh HIB medium (18.8 mL) (i.e., to final bacterial concentration of about 10^5 CFU/mL). A solution (1 mL) of each compound prepared to a concentration of 2 mM (final concentration of compound 100 μM) was added to the culture broth containing the bacteria. Using a shaker (RGR-1 type, manufactured by IWASHIYA, Ltd.), shake culture was conducted at 37° C., and 2 mL of culture broth after 24 hr was sampled. The sampled culture broth was filtered (DISMIC, 0.45 μm, Advantech Toyo) and diluted 10^5-fold with sterile distilled water. The resulting suspension (200 μL) was added to a limulus reagent (LAL ES, Wako Pure Chemical Industries) and LPS concentration was measured using Toxinometer MT-285 (Wako Pure Chemical Industries) preheated to 37° C.
The LPS inhibitory ratio of the compound was calculated as a ratio of the LPS concentration of the compound addition group relative to the LPS concentration of the compound non-addition group. […] The inhibitory ratio of each compound is shown in the following in Table 1 as a relative ratio to the inhibitory ratio of the compound of Example 1 as 1.0.

[2] = tested on: LPS in rat peritonitis (CLP; cecal ligation and puncture) model; assay: Inhibitory effect on LPS that increases in rat peritonitis (CLP) model; assay type: in vivo; settings: iv, continuous tail vein infusion 2.5 mg/kg/hr
Experimental: Rat peritonitis (CLP; cecal ligation and puncture) model was prepared according to the method of Wichterman et al. (J. Surg. Res. 29, 189-201 <1980>). That is, a rat fasted overnight was anesthetized with ether, and a midline laparotomy was performed and the cecum was exposed. The cecum was ligated with a 3-0 silk thread at its base and perforated two times with an 18 G injection needle. The cecum was gently squeezed to extrude feces, which were spread around the abdomen, and the sectioned part was sutured. The animal was fixed in a Borrmann cage, and physiological saline or drug solution ([…]) was continuously given from the tail vein at an administration rate of 2.5 mg/kg/hr with an infusion pump (22 M, Harvard, 5 mL/kg/hr as a dose).
After 6 hr of the CLP treatment, the animal was sacrificed with carbonic acid gas. The abdominal cavity was washed by injecting phosphate buffered saline (PBS; 37° C., 10 mL) and the abdominal cavity washing containing ascites (PLF; peritoneal lavage fluid) was recovered. The recovery weight of the obtained PLF was measured, and PLF was centrifuged (1500 rpm for 5 min, 4° C.) to recover supernatant. The blood taken from the heart was centrifuged (3000 rpm for 10 min, 4° C.) using a serum separation tube, and the serum was recovered. The concentration of LPS in the abdominal cavity and serum was measured using Toxinometer MT-285 (Waco Pure Chemical Industries) preheated to 37° C., after diluting the supernatant and serum of the recovered PLF 10^5-fold and 10^2-fold, respectively, with sterile distilled water, and adding 200 μL thereof to a limulus reagent (LAL ES, Waco Pure Chemical Industries). The amount of LPS per abdominal cavity was calculated from amount of recovered abdominal cavity washing (PLF)×LPS concentration of PLF.
The LPS inhibitory ratio of the compound was calculated as the ratio of LPS concentration of the compound administration group to LPS concentration of the physiological saline administration group.

[3] = peritoneal lavage fluid 6 hr after CLP, read-out: LPS inhibitory ratio (%) in abdominal cavity
[4] = serum 6 hr after CLP, read-out: LPS inhibitory ratio (%) in blood

| SMILES | inhibitory effect of compound on LPS in E. coli culture supernatant, relative ratio [1] | inhibition in vivo at 2.5 mg/kg/h [2, 3] [%] | inhibition in vivo at 2.5 mg/kg/h [2, 4] [%] |
| --- | --- | --- | --- |
| CC(C)C[C@@H](C(=O)N[C@@H](Cc1ccccc1)C(=O)NCS(=O)(=O)[O-])C(CN1C(=O)c2ccccc2C1=O)C(=O)NO.[Na+] (single isomer, unassigned) [Example 15, 5-methyl-3(R)-[2-phenyl-1(S)-(sulfomethylcarbamoyl)ethylcarbamoyl]-2(R or S)-phthalimidomethylhexanohydroxamic acid sodium salt] | 1.05 | 70.3 | 68.2 |
| CC(C)C[C@@H](C(=O)N[C@@H](Cc1ccccc1)C(=O)NCCS(=O)(=O)[O-])C(CN1C(=O)c2ccccc2C1=O)C(=O)NO.[Na+] (single isomer, unassigned) [Example 17, 5-methyl-3(R)-[2-phenyl-1(S)-(2-sulfoethylcarbamoyl)ethylcarbamoyl]-2(R or S)-phthalimidomethylhexanohydroxamic acid sodium salt] | 0.78 | 14.4 | 59.1 |
| CC(C)C[C@@H](C(=O)N[C@@H](Cc1ccccc1)C(=O)NCCCS(=O)(=O)[O-])C(CN1C(=O)c2ccccc2C1=O)C(=O)NO.[Na+] (single isomer, unassigned) [Example 19, 5-methyl-3(R)-[2-phenyl-1(S)-(3-sulfopropylcarbamoyl)ethylcarbamoyl]-2(R or S)-phthalimidomethylhexanohydroxamic acid sodium salt] | 0.67 | 89.6 | 67.8 |
| CC(C)C[C@@H](C(=O)N[C@@H](Cc1ccccc1)C(=O)NCCCCS(=O)(=O)[O-])C(CN1C(=O)c2ccccc2C1=O)C(=O)NO.[Na+] (single isomer, unassigned) [Example 21, 5-methyl-3(R)-[2-phenyl-1(S)-(4-sulfobutylcarbamoyl)ethylcarbamoyl]-2(R or S)-phthalimidomethylhexanohydroxamic acid sodium salt] | 0.79 | 57.1 | 55.9 |
| CC(C)C[C@@H](C(=O)N[C@@H](Cc1ccccc1)C(=O)NCCCCCS(=O)(=O)[O-])C(CN1C(=O)c2ccccc2C1=O)C(=O)NO.[Na+] (single isomer, unassigned) [Example 22, 5-methyl-3(R)-[2-phenyl-1(S)-(5-sulfopentylcarbamoyl)ethylcarbamoyl]-2(R or S)-phthalimidomethylhexanohydroxamic acid sodium salt] | 0.68 | 80.7 | 21.6 |
